# According to US11020340B2, “Compositions containing natural products and use thereof for skin and hair” (Seiberg Consulting, LLC, priority 2017, dated 2021):
# Assay: ROS-Glo H2O2 assay: removal or elimination of added hydrogen peroxide
# Type: biochemical
# Conditions: for microM H2O2: Table 2A calibration; for microM H2O2 / Hydrogen peroxide levels, Micro Molar H2O2: 30 minutes at room temperature; for Hydrogen peroxide levels, Micro Molar H2O2: Table 2B
# Method: Broken-up algae powders (two independent batches) and the prototype formulations of Table 1A were evaluated for their biological activity in the removal or elimination of hydrogen peroxide by using the ROS-Glo™ H2O2 assay kit (Promega). The ROS-Glo™ H2O2 assay is a homogeneous, rapid and sensitive luminescent assay that measures the level of hydrogen peroxide directly in cell culture or in defined reactions. This assay allows identification of conditions or test compounds, such as small molecule inhibitors or inducers that alter ROS levels. An H2O2 Substrate is employed that reacts directly with H2O2 to generate a luciferin precursor. Upon addition of ROS-Glo™ Detection Reagent containing Ultra-Glo™ Recombinant Luciferase and Cysteine, the precursor is converted to luciferin by the d-Cysteine, and the produced luciferin reacts with Ultra-Glo™ Recombinant Luciferase to generate a luminescent signal that is proportional to H2O2 concentration. In the current study H2O2 was added into the reaction wells and the H2O2-degrading activity of the test agents, at various concentrations, was evaluated after 30 minutes of exposure at room temperature. Glutathione (GSH) served as a positive control and the luminescence results (RLU) of different GSH concentrations were calibrated to hydrogen peroxide concentrations (see Table 2A).
# In a similar study, one batch of broken-up Porphyridium powder was evaluated for the same biological activity before and after gamma irradiation. The gamma irradiation used was considered weak, and ranged from about 5 to about 15 kGy.
# A broken-up algae powder preparation was evaluated for biological activity (removal or elimination of hydrogen peroxide) using the ROS-Glo™ H2O2 assay kit (Promega), as described in Example 2. The powder was suspended in water and used “as is” (non-denatured) for the assay, or was heated to 100 C for 30 minutes to achieve a complete denaturation. Upon heating, the preparation changed its color from red/pink to yellow/green or to light yellow/colorless.
smiles,measurement,setting,value
"N[C@@H](CCC(=O)N[C@@H](CS)C(=O)NCC(=O)O)C(=O)O [GSH, Glutathione]",microM H2O2,GSH 0.025 %,151.69 µM
same,microM H2O2,GSH 0.050 %,105.32 µM
same,microM H2O2,GSH 0.100 %,67.84 µM
same,microM H2O2,GSH 0.200 %,45.76 µM
same,microM H2O2,GSH 0.400 %,14.26 µM
same,microM H2O2,GSH 0.800 %,-7.13 µM
same,microM H2O2,GSH 1.000 %,-10.27 µM
same,"Hydrogen peroxide levels, Micro Molar H2O2",0.025 % test agent,139.566 Micro Molar
same,"Hydrogen peroxide levels, Micro Molar H2O2",0.050 % test agent,112.262 Micro Molar
same,"Hydrogen peroxide levels, Micro Molar H2O2",0.100 % test agent,76.093 Micro Molar
same,"Hydrogen peroxide levels, Micro Molar H2O2",0.200 % test agent,53.453 Micro Molar
same,"Hydrogen peroxide levels, Micro Molar H2O2",0.400 % test agent,25.850 Micro Molar
same,"Hydrogen peroxide levels, Micro Molar H2O2",0.800 % test agent,−6.940 Micro Molar
same,"Hydrogen peroxide levels, Micro Molar H2O2",1.000 % test agent,−8.278 Micro Molar
same,Micro Molar H2O2,"Table 2C, 0.0025 % Test/Ref",58.797 Micro Molar
same,Micro Molar H2O2,"Table 2C, 0.0050 % Test/Ref",49.344 Micro Molar
same,Micro Molar H2O2,"Table 2C, 0.0100 % Test/Ref",52.736 Micro Molar
same,Micro Molar H2O2,"Table 2C, 0.0250 % Test/Ref",41.413 Micro Molar
same,Micro Molar H2O2,"Table 2C, 0.0500 % Test/Ref",28.936 Micro Molar
same,Micro Molar H2O2,"Table 2C, 0.1000 % Test/Ref",16.548 Micro Molar
same,Micro Molar H2O2,"Table 2C, 0.2500 % Test/Ref",6.375 Micro Molar
same,Micro Molar H2O2,"Table 2C, 0.5000 % Test/Ref",−9.043 Micro Molar
same,Micro Molar H2O2,"Table 3, 0.025 % test agent",141.3439 Micro Molar
same,Micro Molar H2O2,"Table 3, 0.05 % test agent",98.16 Micro Molar
same,Micro Molar H2O2,"Table 3, 0.1 % test agent",53.43 Micro Molar
same,Micro Molar H2O2,"Table 3, 0.2 % test agent",10.87 Micro Molar
same,Micro Molar H2O2,"Table 3, 0.4 % test agent",−14.384 Micro Molar
same,Micro Molar H2O2,"Table 3, 0.8 % test agent",−14.5708 Micro Molar
